Assay results taken from patent publication US20140221369A1, “5-DEUTERO-2,4-THIAZOLIDINEDIONE AND 5-DEUTERO-2,4-OXAZOLIDINEDIONE DERIVATIVES AND COMPOSITIONS COMPRISING AND METHODS OF USING THE SAME” (DeuteRx, LLC, priority 2013, published 2014).
Blank lines part the entries; values can stand above or below the compound they belong to.

What was measured:
[1] = In vitro stability in human plasma at 37° C. (enantiomerization and D/H exchange, chiral LC/MS-MS, kinetic fit); format: in vitro ADME; details: for k, h+ → h− / k, h− → h+: enantiomerization rate constant, fit of the stability data of the protonated enantiomer
Protocol: The (+)-5-[(p-{[6-(4-amino-3,5-xylyloxy)-1-methyl-1,3-diaza-1H-inden-2-yl]methoxy}phenyl)methyl]-1,3-thiazolidine-2,4-dione, (−)-5-[(p-{[6-(4-amino-3,5-xylyloxy)-1-methyl-1,3-diaza-1H-inden-2-yl]methoxy}phenyl)methyl]-1,3-thiazolidine-2,4-dione, and rac-5-[(p-{[6-(4-amino-3,5-xylyloxy)-1-methyl-1,3-diaza-1H-inden-2-yl]methoxy}phenyl)methyl]-(5-^2H)-1,3-thiazolidine-2,4-dione were incubated in human plasma (K3EDTA as anticoagulant) at 37° C. in duplicates. […] It also contained ˜15% of the protonated enantiomers. Aliquots were removed at time=0, 5, 10, 15, 30 min, and 1, 2, 4, and 8 hours. Plasma proteins were precipitated by addition of acetonitrile containing cisapride as an internal standard (ISTD) and the supernatants were analyzed semi-quantitatively by LC/MS-MS with elution on a chiral column (Daicel ChiralPak IC-3) for the separation of enantiomers (isocratic method of 30:70 v/v 20 mM ammonium bicarbonate in water (pH=9.0) and acetonitrile). Peak areas for the deuterated enantiomers (+)-5-[(p-{[6-(4-amino-3,5-xylyloxy)-1-methyl-1,3-diaza-1H-inden-2-yl]methoxy}phenyl)methyl]-1,3-thiazolidine-2,4-dione and (−)-5-[(p-{[6-(4-amino-3,5-xylyloxy)-1-methyl-1,3-diaza-1H-inden-2-yl]methoxy}phenyl)methyl]-(5-^2H)-1,3-thiazolidine-2,4-dione were normalized to the ISTD and corrected for the isotopic peak of the corresponding protonated enantiomer, (+)-5-[(p-{[6-(4-amino-3,5-xylyloxy)-1-methyl-1,3-diaza-1H-inden-2-yl]methoxy}phenyl)methyl]-1,3-thiazolidine-2,4-dione and (−)-5-[(p-{[6-(4-amino-3,5-xylyloxy)-1-methyl-1,3-diaza-1H-inden-2-yl]methoxy}phenyl)methyl]-1,3-thiazolidine-2,4-dione, respectively, if present. Corrected data were analyzed and plotted using Microsoft Excel 2013 (Microsoft Corp, Redmond, Wash.) and the Excel Solver.
Scheme 1 illustrates possible reactions in a solution of a mixture of deuterated enantiomers when no degradation or side-reactions occur. The deuterium in both enantiomers, d+ and d−, can be lost by D/H exchange to give both protonated enantiomers, h+ and h− with rate constants kD++, kD+−, kD−+, kD−−, where D indicates D/H exchange, the first +/− represents the reagent, d+ or d−, and the second +/− stands for the product, h+ or h−. At the same time, the protonated enantiomers h+ and h− can exchange, with enantiomerization rate constants k+− and k−+.
Illustration of possible reactions and corresponding rate constants in a solution of rac-5-[(p-{[6-(4-amino-3,5-xylyloxy)-1-methyl-1,3-diaza-1H-inden-2-yl]methoxy}phenyl)methyl]-(5-^2H)-1,3-thiazolidine-2,4-dione where d+, d−, h+, h− stand for […] and (−)-5-[(p-{[6-(4-amino-3,5-xylyloxy)-1-methyl-1,3-diaza-1H-inden-2-yl]methoxy}phenyl)methyl]-(5-^2H)-1,3-thiazolidine-2,4-dione and (+)- and (−)-5-[(p-{[6-(4-amino-3,5-xylyloxy)-1-methyl-1,3-diaza-1H-inden-2-yl]methoxy}phenyl)methyl]-1,3-thiazolidine-2,4-dione, respectively.
Independent analyses of the data for h+ and h− were performed first and the average rate constants k+− and k−+ from these two fits were calculated and used as constants in the fitting of the stability data of the deuterated racemate. Calculated concentrations were obtained through numerical approximation of differential equations (1) and (2) for the stability studies of h+ and h− and equations (3) to (6) for the stability study of the enantiomeric mixture of deuterated d+ and d− by the Euler method (equation (7)). The step between calculated time points was minimized in order to minimize the local error (proportional to the square of the step size) and the global error (proportional to the step size). Data analysis was performed in Microsoft Excel 2013, using the Solver Generalized Reduced Gradient Nonlinear method with central derivatives to minimize the sum of sums of weighted Δ^2, square of difference between ISTD-normalized experimental data and calculated value, divided by the experimental data. […]

[2] = target: T1, peroxisome proliferator-activated receptor gamma (PPARγ) (Homo sapiens, UniProt P37231); experiment: TRAP220 PPARγ coactivator recruitment assay (Cerep); format: biochemical; details: for EC50: TRAP220 coactivator recruitment, percent of control (10 μM rosiglitazone), four-parameter fit, read-out: EC50, PPARγ agonist activity
T1 construct: label (kind not specified); Cerep (France), contract assay
T1 sequence (P37231 whole entry): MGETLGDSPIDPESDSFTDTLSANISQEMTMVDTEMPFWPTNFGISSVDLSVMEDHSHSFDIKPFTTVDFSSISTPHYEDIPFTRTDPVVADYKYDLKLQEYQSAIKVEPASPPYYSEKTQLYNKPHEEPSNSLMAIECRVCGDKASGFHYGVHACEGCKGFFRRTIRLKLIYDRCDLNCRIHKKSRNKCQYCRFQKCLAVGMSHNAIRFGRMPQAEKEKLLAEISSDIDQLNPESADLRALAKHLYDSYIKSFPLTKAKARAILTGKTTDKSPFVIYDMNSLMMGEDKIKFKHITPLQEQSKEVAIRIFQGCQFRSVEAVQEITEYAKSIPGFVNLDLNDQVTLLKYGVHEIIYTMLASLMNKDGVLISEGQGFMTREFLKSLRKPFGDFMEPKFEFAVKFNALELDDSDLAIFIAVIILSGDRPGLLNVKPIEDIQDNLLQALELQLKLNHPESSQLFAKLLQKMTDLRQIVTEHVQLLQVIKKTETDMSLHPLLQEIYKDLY
T1 sequence (Q15648 whole entry partner): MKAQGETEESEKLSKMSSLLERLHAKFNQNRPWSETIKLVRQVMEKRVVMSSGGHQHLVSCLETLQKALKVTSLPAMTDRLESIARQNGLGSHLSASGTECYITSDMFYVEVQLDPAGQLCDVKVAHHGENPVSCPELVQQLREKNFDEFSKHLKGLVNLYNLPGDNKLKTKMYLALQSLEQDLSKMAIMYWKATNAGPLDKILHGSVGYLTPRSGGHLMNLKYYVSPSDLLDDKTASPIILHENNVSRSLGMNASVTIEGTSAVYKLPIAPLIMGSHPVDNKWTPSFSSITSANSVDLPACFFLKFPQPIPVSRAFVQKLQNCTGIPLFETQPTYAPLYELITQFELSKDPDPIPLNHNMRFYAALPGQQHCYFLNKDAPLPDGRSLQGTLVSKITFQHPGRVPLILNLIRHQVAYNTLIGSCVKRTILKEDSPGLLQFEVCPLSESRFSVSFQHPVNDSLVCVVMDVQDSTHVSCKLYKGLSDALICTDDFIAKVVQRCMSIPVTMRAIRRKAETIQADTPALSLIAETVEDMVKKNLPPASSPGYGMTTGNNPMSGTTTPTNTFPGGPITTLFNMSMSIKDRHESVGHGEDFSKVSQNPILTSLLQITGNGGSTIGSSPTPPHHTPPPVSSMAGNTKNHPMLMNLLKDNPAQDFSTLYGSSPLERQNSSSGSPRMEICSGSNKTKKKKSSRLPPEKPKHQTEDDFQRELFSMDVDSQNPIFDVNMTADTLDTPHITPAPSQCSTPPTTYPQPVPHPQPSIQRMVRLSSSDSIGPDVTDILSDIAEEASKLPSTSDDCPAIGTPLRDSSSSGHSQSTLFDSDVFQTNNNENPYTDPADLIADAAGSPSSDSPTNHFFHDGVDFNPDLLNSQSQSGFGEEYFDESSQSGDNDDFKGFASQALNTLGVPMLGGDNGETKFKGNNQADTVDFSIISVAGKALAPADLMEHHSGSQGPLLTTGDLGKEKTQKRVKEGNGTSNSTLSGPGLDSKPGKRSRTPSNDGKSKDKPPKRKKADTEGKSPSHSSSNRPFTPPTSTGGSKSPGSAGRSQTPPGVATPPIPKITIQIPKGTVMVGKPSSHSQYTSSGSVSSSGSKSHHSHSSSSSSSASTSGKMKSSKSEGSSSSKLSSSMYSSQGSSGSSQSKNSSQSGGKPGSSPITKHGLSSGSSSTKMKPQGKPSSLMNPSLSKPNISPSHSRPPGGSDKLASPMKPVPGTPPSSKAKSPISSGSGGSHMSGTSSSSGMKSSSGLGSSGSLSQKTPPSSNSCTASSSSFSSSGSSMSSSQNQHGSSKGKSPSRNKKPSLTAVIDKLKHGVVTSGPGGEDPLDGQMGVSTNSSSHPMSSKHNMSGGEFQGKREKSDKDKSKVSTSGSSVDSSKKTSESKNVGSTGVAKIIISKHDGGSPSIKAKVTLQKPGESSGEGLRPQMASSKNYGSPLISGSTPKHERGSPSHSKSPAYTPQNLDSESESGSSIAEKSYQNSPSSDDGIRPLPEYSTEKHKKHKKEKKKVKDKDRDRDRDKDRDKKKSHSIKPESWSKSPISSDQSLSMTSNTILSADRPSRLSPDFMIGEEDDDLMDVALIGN
Protocol: The agonist activity of (+)- and (−)-5-[(p-{[6-(4-amino-3,5-xylyloxy)-1-methyl-1,3-diaza-1H-inden-2-yl]methoxy}phenyl)methyl]-(5-^2H)-1,3-thiazolidine-2,4-dione at the peroxisome proliferator-activated receptor gamma (PPARγ) was evaluated in the thyroid receptor-associated protein complex, 220 kDa component (TRAP220) PPARγ coactivator recruitement assay performed at Cerep (France). Briefly, a mixture of labeled PPARγ and TRAP220 coactivator was pre-incubated with a fluorescence acceptor at room temperature for 30 minutes in the presence of a fluorescence acceptor and the test compound. A fluorescence donor was then added and the mixture was incubated for 120 minutes at room temperature. The fluorescence signal was measured and results expressed as a percent of control (10 μM rosiglitazone). A dose response curve was generated for each enantiomer and the experimental data was analyzed using the log(agonist) vs. response−variable slope (four parameters) nonlinear model in GraphPad Prism 6.0 (GraphPad Software, Inc., La Jolla, Calif.).

[3] = D/H exchange rate constant, mixture of d− and d+ in human plasma at 37° C., fit to Equations 1 to 6
[4] = average of enantiomerization rate constants obtained by fitting data for h− and h+, human plasma at 37° C.

Compound: [2H]C1(Cc2ccc(OCc3nc4ccc(Oc5cc(C)c(N)c(C)c5)cc4n3C)cc2)SC(=O)NC1=O (racemic) [d−/d+, rac-5-[(p-{[6-(4-amino-3,5-xylyloxy)-1-methyl-1,3-diaza-1H-inden-2-yl]methoxy}phenyl)methyl]-(5-^2H)-1,3-thiazolidine-2,4-dione]
- k, d+ → h+ [1, 3]: 0 h⁻¹
- k, d+ → h− [1, 3]: 0.300 h⁻¹
- k, d− → h+ [1, 3]: 0.211 h⁻¹
- k, d− → h− [1, 3]: 0.499 h⁻¹
- k, h+ → h− (average used in analysis of the deuterated mixture) [1, 4]: 0.802 h⁻¹
- k, h− → h+ (average used in analysis of the deuterated mixture) [1, 4]: 0.668 h⁻¹

- potency relative to the (−) enantiomer d− (fold less potent) ([2]; ratio of EC50): 7 fold
Compound: Cc1cc(Oc2ccc3nc(COc4ccc(CC5SC(=O)NC5=O)cc4)n(C)c3c2)cc(C)c1N (single isomer, unassigned; (+)) [d+, (+)-5-[(p-{[6-(4-amino-3,5-xylyloxy)-1-methyl-1,3-diaza-1H-inden-2-yl]methoxy}phenyl)methyl]-(5-^2H)-1,3-thiazolidine-2,4-dione]

- stability of d+ relative to h+ ([1]; human plasma at 37° C.): 2-3 fold
- EC50 [2]: 48.7 nM
Compound: [2H]C1(Cc2ccc(OCc3nc4ccc(Oc5cc(C)c(N)c(C)c5)cc4n3C)cc2)SC(=O)NC1=O (single isomer, unassigned; (+)) [d+, (+)-5-[(p-{[6-(4-amino-3,5-xylyloxy)-1-methyl-1,3-diaza-1H-inden-2-yl]methoxy}phenyl)methyl]-(5-^2H)-1,3-thiazolidine-2,4-dione]

Compound: Cc1cc(Oc2ccc3nc(COc4ccc(CC5SC(=O)NC5=O)cc4)n(C)c3c2)cc(C)c1N (single isomer, unassigned; (+)) [h+, (+)-5-[(p-{[6-(4-amino-3,5-xylyloxy)-1-methyl-1,3-diaza-1H-inden-2-yl]methoxy}phenyl)methyl]-1,3-thiazolidine-2,4-dione, reference compound]
- k, h+ → h− ([1]; human plasma at 37° C.): 0.803 h⁻¹
- k, h− → h+ ([1]; human plasma at 37° C.): 0.665 h⁻¹

- stability of d− relative to h− ([1]; human plasma at 37° C.): not more stable than h−
- EC50 [2]: 7.4 nM
Compound: [2H]C1(Cc2ccc(OCc3nc4ccc(Oc5cc(C)c(N)c(C)c5)cc4n3C)cc2)SC(=O)NC1=O (single isomer, unassigned; (-)) [d−, (−)-5-[(p-{[6-(4-amino-3,5-xylyloxy)-1-methyl-1,3-diaza-1H-inden-2-yl]methoxy}phenyl)methyl]-(5-^2H)-1,3-thiazolidine-2,4-dione]

Compound: Cc1cc(Oc2ccc3nc(COc4ccc(CC5SC(=O)NC5=O)cc4)n(C)c3c2)cc(C)c1N (single isomer, unassigned; (-)) [h−, (−)-5-[(p-{[6-(4-amino-3,5-xylyloxy)-1-methyl-1,3-diaza-1H-inden-2-yl]methoxy}phenyl)methyl]-1,3-thiazolidine-2,4-dione, reference compound]
- k, h+ → h− ([1]; human plasma at 37° C.): 0.800 h⁻¹
- k, h− → h+ ([1]; human plasma at 37° C.): 0.671 h⁻¹
